# Assay results published in publication PMC6695897, “Synthesis and In Vitro Screening of Novel Heterocyclic β-D-Gluco- and β-D-Galactoconjugates as Butyrylcholinesterase Inhibitors” (Molecules, 2019).
# Read-outs that look alike come from different tables or passages of the source.
# Molecular target: T1, horse serum butyrylcholinesterase (BChE) (Equus caballus, UniProt P81908)
# T1 construct: native enzyme from horse serum, lyophilised, commercial (Sigma-Aldrich), untagged
# Experiment: Ellman assay, global fit to mixed inhibition model
# Type: biochemical
# Conditions: for Ki: read-out: Ki ± SEM (μM) ^1
# Source text: Ellman assay, global fit to mixed inhibition model on horse serum butyrylcholinesterase (BChE)
# T1 sequence (P81908 whole entry): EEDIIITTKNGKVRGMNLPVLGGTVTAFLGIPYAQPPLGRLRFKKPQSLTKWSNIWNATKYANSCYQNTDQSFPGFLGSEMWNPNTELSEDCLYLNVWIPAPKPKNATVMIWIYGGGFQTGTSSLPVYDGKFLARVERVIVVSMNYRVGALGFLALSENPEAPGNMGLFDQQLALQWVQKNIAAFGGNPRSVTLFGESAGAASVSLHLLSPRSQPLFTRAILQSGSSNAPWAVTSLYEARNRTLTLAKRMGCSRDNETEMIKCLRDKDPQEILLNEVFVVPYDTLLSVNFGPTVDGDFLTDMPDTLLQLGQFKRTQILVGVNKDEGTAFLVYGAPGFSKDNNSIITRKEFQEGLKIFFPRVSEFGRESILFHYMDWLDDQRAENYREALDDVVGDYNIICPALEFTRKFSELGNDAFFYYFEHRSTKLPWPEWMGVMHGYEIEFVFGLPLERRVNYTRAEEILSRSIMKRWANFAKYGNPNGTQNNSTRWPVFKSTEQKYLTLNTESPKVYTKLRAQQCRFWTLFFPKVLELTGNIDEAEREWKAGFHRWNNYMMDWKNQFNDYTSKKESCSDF
SMILES,Ki,also measured
"OC[C@H]1O[C@@H](OCC[n+]2cn(Cc3ccccc3)c3ccccc32)[C@H](O)[C@@H](O)[C@@H]1O [compound 7, N1-benzyl-N3-[2-(β-D-glucopyranozyloxy)ethyl]benzimidazolium bromide]",52 ± 3 µM,–
"OC[C@H]1O[C@@H](OCCn2cnc3ccccc32)[C@H](O)[C@@H](O)[C@@H]1O [compound 5, N1-[2-(β-D-glucopyranozyloxy)ethyl]benzimidazole]",–,"Ki (acetylthiocholine 0.04–1 mM, DTNB 0.3 mM, 0.1 M sodium phosphate pH 7.4, 25 °C, mixed): 16 ± 1.6 µM"
"OC[C@H]1O[C@@H](OCCn2cnc3ccccc32)[C@H](O)[C@@H](O)[C@H]1O [compound 12, N1-[2-(β-D-galactopyranozyloxy)ethyl]benzimidazole]",–,"Ki ± SEM (μM) ^1 (acetylthiocholine 0.04–1 mM, DTNB 0.3 mM, 0.1 M sodium phosphate pH 7.4, 25 °C, unreliable (extrapolated beyond tested 15–170 μM)): 782 ± 306 µM"
"OC[C@H]1O[C@@H](OCC[n+]2cn(Cc3ccccc3)c3ccccc32)[C@H](O)[C@@H](O)[C@H]1O [compound 14, N1-benzyl-N3-[2-(β-D-galactopyranozyloxy)ethyl]benzimidazolium bromide]",26 ± 2.7 µM,–
